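Protocol summary: plate cells (96-well), add compound at 5 concentrations, incubate 48 h, interpolate endpoints linearly. The concentration for full growth arrest is given as TGI.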
How the values were obtained:
Experiment in all cases: DTP human tumour cell line panel, 48 h
786-0 renal = test system: 786-0 renal
A549 NSCLC = test system: A549 NSCLC
ACHN renal = test system: ACHN renal
CAKI-1 renal = test system: CAKI-1 renal
CCRF-CEM leukemia = test system: CCRF-CEM leukemia
COLO 205 colon = test system: COLO 205 colon
DLD-1 colon = test system: DLD-1 colon
DMS 114 small cell lung = test system: DMS 114 small cell lung
DMS 273 small cell lung = test system: DMS 273 small cell lung
HCC-2998 colon = test system: HCC-2998 colon
HCT-116 colon = test system: HCT-116 colon
HCT-15 colon = test system: HCT-15 colon
HOP-18 NSCLC = test system: HOP-18 NSCLC
HOP-62 NSCLC = test system: HOP-62 NSCLC
HT29 colon = test system: HT29 colon
IGROV1 ovarian = test system: IGROV1 ovarian
K-562 leukemia = test system: K-562 leukemia
KM12 colon = test system: KM12 colon
KM20L2 colon = test system: KM20L2 colon
LOX IMVI melanoma = test system: LOX IMVI melanoma
LXFL 529 NSCLC = test system: LXFL 529 NSCLC
M14 melanoma = test system: M14 melanoma
M19-MEL melanoma = test system: M19-MEL melanoma
MALME-3M melanoma = test system: MALME-3M melanoma
MOLT-4 leukemia = test system: MOLT-4 leukemia
NCI-H226 lung = test system: NCI-H226 lung
NCI-H23 lung = test system: NCI-H23 lung
NCI-H460 lung = test system: NCI-H460 lung
NCI-H522 lung = test system: NCI-H522 lung
OVCAR-3 ovarian = test system: OVCAR-3 ovarian
OVCAR-4 ovarian = test system: OVCAR-4 ovarian
OVCAR-5 ovarian = test system: OVCAR-5 ovarian
OVCAR-8 ovarian = test system: OVCAR-8 ovarian
RPMI-8226 leukemia = test system: RPMI-8226 leukemia
RXF 393 renal = test system: RXF 393 renal
RXF-631 renal = test system: RXF-631 renal
SF-268 CNS = test system: SF-268 CNS
SF-295 CNS = test system: SF-295 CNS
SF-539 CNS = test system: SF-539 CNS
SK-MEL-2 melanoma = test system: SK-MEL-2 melanoma
SK-MEL-28 melanoma = test system: SK-MEL-28 melanoma
SK-MEL-5 melanoma = test system: SK-MEL-5 melanoma
SN12C renal = test system: SN12C renal
SNB-19 CNS = test system: SNB-19 CNS
SNB-75 CNS = test system: SNB-75 CNS
SNB-78 CNS = test system: SNB-78 CNS
SR leukemia = test system: SR leukemia
SW-620 colon = test system: SW-620 colon
TK-10 renal = test system: TK-10 renal
U251 CNS = test system: U251 CNS
UACC-257 melanoma = test system: UACC-257 melanoma
UACC-62 melanoma = test system: UACC-62 melanoma
UO-31 renal = test system: UO-31 renal
A498 renal = test system: A498 renal
EKVX NSCLC = test system: EKVX NSCLC
HL-60(TB) leukemia = test system: HL-60(TB) leukemia
HOP-92 NSCLC = test system: HOP-92 NSCLC
SK-OV-3 ovarian = test system: SK-OV-3 ovarian
XF 498 CNS = test system: XF 498 CNS

Compound: CS(=O)(=O)c1ccc(-c2cc(-c3ccc(S(C)(=O)=O)cc3)[n+](-c3cc(-c4ccc(S(C)(=O)=O)cc4)c([O-])c(-c4ccc(S(C)(=O)=O)cc4)c3)c(-c3ccc(S(C)(=O)=O)cc3)c2)cc1
- TGI (786-0 renal): > 100 µM
- TGI (A549 NSCLC): > 100 µM
- TGI (ACHN renal): > 100 µM
- TGI (CAKI-1 renal): > 100 µM
- TGI (CCRF-CEM leukemia): > 100 µM
- TGI (COLO 205 colon): > 100 µM
- TGI (DLD-1 colon): > 100 µM
- TGI (DMS 114 small cell lung): > 100 µM
- TGI (DMS 273 small cell lung): > 100 µM
- TGI (HCC-2998 colon): > 100 µM
- TGI (HCT-116 colon): > 100 µM
- TGI (HCT-15 colon): > 100 µM
- TGI (HOP-18 NSCLC): > 100 µM
- TGI (HOP-62 NSCLC): > 100 µM
- TGI (HT29 colon): > 100 µM
- TGI (IGROV1 ovarian): > 100 µM
- TGI (K-562 leukemia): > 100 µM
- TGI (KM12 colon): > 100 µM
- TGI (KM20L2 colon): > 100 µM
- TGI (LOX IMVI melanoma): > 100 µM
- TGI (LXFL 529 NSCLC): > 100 µM
- TGI (M14 melanoma): > 100 µM
- TGI (M19-MEL melanoma): > 100 µM
- TGI (MALME-3M melanoma): > 100 µM
- TGI (MOLT-4 leukemia): > 100 µM
- TGI (NCI-H226 lung): > 100 µM
- TGI (NCI-H23 lung): > 100 µM
- TGI (NCI-H460 lung): > 100 µM
- TGI (NCI-H522 lung): > 100 µM
- TGI (OVCAR-3 ovarian): > 100 µM
- TGI (OVCAR-4 ovarian): > 100 µM
- TGI (OVCAR-5 ovarian): > 100 µM
- TGI (OVCAR-8 ovarian): > 100 µM
- TGI (RPMI-8226 leukemia): > 100 µM
- TGI (RXF 393 renal): > 100 µM
- TGI (RXF-631 renal): > 100 µM
- TGI (SF-268 CNS): > 100 µM
- TGI (SF-295 CNS): > 100 µM
- TGI (SF-539 CNS): > 100 µM
- TGI (SK-MEL-2 melanoma): > 100 µM
- TGI (SK-MEL-28 melanoma): > 100 µM
- TGI (SK-MEL-5 melanoma): > 100 µM
- TGI (SN12C renal): > 100 µM
- TGI (SNB-19 CNS): > 100 µM
- TGI (SNB-75 CNS): > 100 µM
- TGI (SNB-78 CNS): > 100 µM
- TGI (SR leukemia): > 100 µM
- TGI (SW-620 colon): > 100 µM
- TGI (TK-10 renal): > 100 µM
- TGI (U251 CNS): > 100 µM
- TGI (UACC-257 melanoma): > 100 µM
- TGI (UACC-62 melanoma): > 100 µM
- TGI (UO-31 renal): > 100 µM

Compound: CC/C=C\C/C=C\C/C=C\CCCCCCCC(=O)OCC(O)CO (configuration not stated)
- TGI (786-0 renal): > 100 µM
- TGI (A498 renal): > 100 µM
- TGI (A549 NSCLC): > 100 µM
- TGI (ACHN renal): > 72.5 µM
- TGI (CAKI-1 renal): 59.8 µM
- TGI (CCRF-CEM leukemia): > 72.9 µM
- TGI (COLO 205 colon): > 100 µM
- TGI (DLD-1 colon): > 100 µM
- TGI (DMS 114 small cell lung): > 71 µM
- TGI (DMS 273 small cell lung): > 100 µM
- TGI (EKVX NSCLC): > 100 µM
- TGI (HCC-2998 colon): > 100 µM
- TGI (HCT-116 colon): > 68.3 µM
- TGI (HCT-15 colon): > 88 µM
- TGI (HL-60(TB) leukemia): > 46 µM
- TGI (HOP-18 NSCLC): > 100 µM
- TGI (HOP-62 NSCLC): > 100 µM
- TGI (HOP-92 NSCLC): > 100 µM
- TGI (HT29 colon): > 100 µM
- TGI (IGROV1 ovarian): > 100 µM
- TGI (K-562 leukemia): 49 µM
- TGI (KM12 colon): > 70.9 µM
- TGI (KM20L2 colon): > 100 µM
- TGI (LOX IMVI melanoma): > 59.6 µM
- TGI (LXFL 529 NSCLC): > 68.9 µM
- TGI (M14 melanoma): > 81.9 µM
- TGI (MALME-3M melanoma): > 100 µM
- TGI (MOLT-4 leukemia): > 63.5 µM
- TGI (NCI-H226 lung): > 100 µM
- TGI (NCI-H23 lung): > 100 µM
- TGI (NCI-H460 lung): > 100 µM
- TGI (NCI-H522 lung): > 77.1 µM
- TGI (OVCAR-3 ovarian): > 74.5 µM
- TGI (OVCAR-4 ovarian): > 100 µM
- TGI (OVCAR-5 ovarian): > 100 µM
- TGI (OVCAR-8 ovarian): > 100 µM
- TGI (RPMI-8226 leukemia): > 77.7 µM
- TGI (RXF 393 renal): > 100 µM
- TGI (SF-268 CNS): > 100 µM
- TGI (SF-295 CNS): > 100 µM
- TGI (SF-539 CNS): > 100 µM
- TGI (SK-MEL-2 melanoma): > 100 µM
- TGI (SK-MEL-28 melanoma): > 100 µM
- TGI (SK-MEL-5 melanoma): > 100 µM
- TGI (SK-OV-3 ovarian): > 100 µM
- TGI (SN12C renal): > 100 µM
- TGI (SNB-19 CNS): > 100 µM
- TGI (SNB-75 CNS): > 100 µM
- TGI (SNB-78 CNS): > 73.8 µM
- TGI (SR leukemia): > 100 µM
- TGI (SW-620 colon): > 96.4 µM
- TGI (TK-10 renal): > 100 µM
- TGI (U251 CNS): > 73.7 µM
- TGI (UACC-257 melanoma): > 100 µM
- TGI (UACC-62 melanoma): > 100 µM
- TGI (UO-31 renal): 24.6 µM
- TGI (XF 498 CNS): > 100 µM

Compound: COc1ccc2c(c1)C(=O)C1CC(=O)CCC21 (configuration not stated)
- TGI (786-0 renal): > 100 µM
- TGI (A498 renal): > 100 µM
- TGI (A549 NSCLC): > 100 µM
- TGI (ACHN renal): > 100 µM
- TGI (CAKI-1 renal): > 100 µM
- TGI (CCRF-CEM leukemia): > 100 µM
- TGI (COLO 205 colon): > 100 µM
- TGI (DLD-1 colon): > 100 µM
- TGI (DMS 114 small cell lung): > 100 µM
- TGI (DMS 273 small cell lung): > 100 µM
- TGI (EKVX NSCLC): > 100 µM
- TGI (HCC-2998 colon): > 100 µM
- TGI (HCT-116 colon): > 100 µM
- TGI (HCT-15 colon): > 100 µM
- TGI (HL-60(TB) leukemia): > 100 µM
- TGI (HOP-18 NSCLC): > 100 µM
- TGI (HOP-62 NSCLC): > 100 µM
- TGI (HOP-92 NSCLC): > 100 µM
- TGI (HT29 colon): > 100 µM
- TGI (IGROV1 ovarian): > 100 µM
- TGI (K-562 leukemia): > 100 µM
- TGI (KM12 colon): > 100 µM
- TGI (KM20L2 colon): > 100 µM
- TGI (LOX IMVI melanoma): > 100 µM
- TGI (LXFL 529 NSCLC): > 100 µM
- TGI (M14 melanoma): > 100 µM
- TGI (M19-MEL melanoma): > 100 µM
- TGI (MALME-3M melanoma): > 100 µM
- TGI (MOLT-4 leukemia): > 100 µM
- TGI (NCI-H226 lung): > 100 µM
- TGI (NCI-H23 lung): > 100 µM
- TGI (NCI-H460 lung): > 100 µM
- TGI (NCI-H522 lung): > 100 µM
- TGI (OVCAR-3 ovarian): > 100 µM
- TGI (OVCAR-4 ovarian): > 100 µM
- TGI (OVCAR-5 ovarian): > 100 µM
- TGI (OVCAR-8 ovarian): > 100 µM
- TGI (RPMI-8226 leukemia): > 100 µM
- TGI (RXF-631 renal): > 100 µM
- TGI (SF-268 CNS): > 100 µM
- TGI (SF-295 CNS): > 100 µM
- TGI (SF-539 CNS): > 100 µM
- TGI (SK-MEL-2 melanoma): > 100 µM
- TGI (SK-MEL-28 melanoma): > 100 µM
- TGI (SK-MEL-5 melanoma): > 100 µM
- TGI (SK-OV-3 ovarian): > 100 µM
- TGI (SN12C renal): > 100 µM
- TGI (SNB-19 CNS): > 100 µM
- TGI (SNB-75 CNS): > 100 µM
- TGI (SNB-78 CNS): > 100 µM
- TGI (SR leukemia): > 100 µM
- TGI (SW-620 colon): > 100 µM
- TGI (TK-10 renal): > 100 µM
- TGI (U251 CNS): > 100 µM
- TGI (UACC-257 melanoma): > 100 µM
- TGI (UACC-62 melanoma): > 100 µM
- TGI (UO-31 renal): > 100 µM

— PubChem BioAssay (NCI)
